A value given as a limit tells only on which side of the number the result lay.

Chain of HeLa cell based IDO1 (P14902 whole entry): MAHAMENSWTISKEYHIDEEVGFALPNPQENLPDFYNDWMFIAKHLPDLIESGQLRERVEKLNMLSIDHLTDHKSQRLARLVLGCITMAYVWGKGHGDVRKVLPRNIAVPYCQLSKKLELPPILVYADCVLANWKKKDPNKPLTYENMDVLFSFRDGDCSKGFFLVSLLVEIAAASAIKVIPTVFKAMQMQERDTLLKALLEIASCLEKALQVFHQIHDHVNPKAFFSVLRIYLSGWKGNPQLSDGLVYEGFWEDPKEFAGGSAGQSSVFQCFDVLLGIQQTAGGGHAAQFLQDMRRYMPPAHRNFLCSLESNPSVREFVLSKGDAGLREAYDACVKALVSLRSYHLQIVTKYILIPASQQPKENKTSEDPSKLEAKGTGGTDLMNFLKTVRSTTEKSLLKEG

One test deals with HeLa cell based IDO1 (Homo sapiens (Human), UniProt P14902). Kind of test: Three-point IDO1 cellular assay (HeLa, 10, 100 and 1000 nM). Conditions: HeLa cells, at 10 nM, 100 ng/mL IFN-γ, 18 hours. On the procedure:
To perform the 3-point HeLa cell based IDO1 assay, HeLa cells were seeded at 25,000 cells per well into 96-well microplate in 100 μL of growth medium. Cells were incubated at 37° C. and 5% CO2 overnight. The next day 100 μL per well of diluted inhibitor in growth medium at 10, 100 and 1000 nM, respectively, was added at a final concentration of 100 ng/ML human IFN-γ. Cells were incubated at 37° C. in a CO2 incubator for 18 hours. […] The plate was incubated at 50° C. for 30 min to hydrolyze N-formylkynurenine produced by IDO1 to kynurenine. The plate was then centrifuged at 2500 rpm for 10 min to remove sediments. 100 μl of supernatant per well was transferred to another 96-well plate and mixed with 100 μL of 2% (w/v) 4-(Dimethylamino) benzaldehyde in acetic acid. The plate was incubated at room temperature for 10 minutes, the yellow color derived from kynurenine was recorded by measuring absorbance at 480 nm using a microplate reader (TECAN Infinite M1000 Pro). Cell based assays were performed in triplicate at each concentration. The absorbance data were analyzed using the computer software, Graphpad Prism. In the absence of the compound and presence of 100 ng/ML IFN-γ, the absorbance (At) in each data set was defined as 100%. The absorbance of medium blank (Ab) in each data set was defined as 0%. The percent absorbance in the presence of each compound was calculated according to the following equation: % Absorbance=(A−Ab)/(At−Ab), where A=the absorbance in the presence of the compound and IFN-γ, Ab=the absorbance of medium blank, and At=the absorbance in the absence of the compounds and presence of IFN-γ. The values of % absorbance versus the compound concentrations were then determined.
As a reminder, the inhibition is the share of the control response that was lost under treatment. As to `O=S(=O)(CC1CCCCC1)NC1C2CC3CC1CC(C(O)CC1c4c(F)cccc4-c4cncn41)(C3)C2` (stereo not drawn) [Compound 65], the inhibition at 0.01 µM is above 50%.
On the same count and under the same terms, the same measure for `OC(CC1c2c(F)cccc2-c2cncn21)C12CC3CC(C1)C(Nc1nc4ccccc4s1)C(C3)C2` (stereo not drawn) [Compound 126]: above 50%.
For `O=S(=O)(NC1C2CC3CC1CC(C(O)CC1c4c(F)cccc4-c4cncn41)(C3)C2)C1CCCC1` (stereo not drawn) [Compound 85A], the “inhibition values of %” value is listed as “greater than 50%”.
Consider `O=S(=O)(CC1CCCC1)NC1C2CC3CC1CC(C(O)CC1c4c(F)cccc4-c4cncn41)(C3)C2` (stereo not drawn) [Compound 82A], for which the inhibition at 0.01 µM was above 50%.
Same read-out and setting: with `Cc1ccc(CS(=O)(=O)NC2C3CC4CC2CC(C(O)CC2c5c(F)cccc5-c5cncn52)(C4)C3)cc1` (stereo not drawn) [Compound 70A] the figure was above 50%.

Still in this test, the particulars now being: HeLa cells, at 100 nM, 100 ng/mL IFN-γ, 18 hours.
Take `O=C(NC1CCCCC1)NC1C2CC3CC1CC(C(O)CC1c4c(F)cccc4-c4cncn41)(C3)C2` (stereo not drawn) [Compound 96A]: the inhibition at 0.1 µM is above 50%.
The same measure, in the same setting: with `O=S(=O)(NC12CC3CC(C1)C(C(O)CC1c4ccccc4-c4cncn41)C(C3)C2)c1ccc(C(F)(F)F)cc1` (stereo not drawn) [Compound 166B] the figure was above 50%; with `CS(=O)(=O)NC1C2CC3CC1CC(C(O)CC1c4c(F)cccc4-c4cncn41)(C3)C2` (stereo not drawn) [Compound 46A], above 50%; with `O=C(Nc1ccc(F)cc1F)NC1C2CC3CC1CC(C(O)CC1c4c(F)cccc4-c4cncn41)(C3)C2` (stereo not drawn) [Compound 105A], above 50%.
As for `CN(C1C2CC3CC1CC(C(O)CC1c4c(F)cccc4-c4cncn41)(C3)C2)S(=O)(=O)Cc1ccccc1` (stereo not drawn) [Compound 89], the “inhibition values of %” value is given as “greater than 50%”.
On to `O=C(Nc1ccc(F)cc1)NC12CC3CC(C1)C(C(O)CC1c4ccccc4-c4cncn41)C(C3)C2` (stereo not drawn) [Compound 163A], for which the inhibition at 0.1 µM is above 50%.
As to `OC(CC1c2c(F)cccc2-c2cncn21)C12CC3CC(C1)C(OCCN1CCOCC1)C(C3)C2` (stereo not drawn) [Compound 135A], the inhibition at 0.1 µM was above 50%.
With `O=S(=O)(Nc1ccccc1)NC1C2CC3CC1CC(C(O)CC1c4ccccc4-c4cncn41)(C3)C2` (stereo not drawn) [Compound 151], the “inhibition values of %” value is listed as “greater than 50%”.
`O=C(NCC1CC1)NC1C2CC3CC1CC(C(O)CC1c4c(F)cccc4-c4cncn41)(C3)C2` (stereo not drawn) [Compound 107A]: the inhibition at 0.1 µM was above 50%.
On the same count and under the same terms, with `O=C(Nc1ccc(Cl)cc1)NC1C2CC3CC1CC(C(O)CC1c4c(F)cccc4-c4cncn41)(C3)C2` (stereo not drawn) [Compound 94A] the figure was above 50%; with `O=C(Nc1ccc2ccccc2c1)NC1C2CC3CC1CC(C(O)CC1c4c(F)cccc4-c4cncn41)(C3)C2` (stereo not drawn) [Compound 110A], above 50%.
`OC(CC1c2c(F)cccc2-c2cncn21)C12CC3CC(C1)C(Nc1nc4cccnc4o1)C(C3)C2` (stereo not drawn) [Compound 127]: the “inhibition values of %” value is listed as “greater than 50%”.
As for `O=S(=O)(CCc1ccccc1)NC1C2CC3CC1CC(C(O)CC1c4c(F)cccc4-c4cncn41)(C3)C2` (stereo not drawn) [Compound 64], the inhibition at 0.1 µM was above 50%.
The same measure, in the same setting: the same measure for `Cc1ccc(NC(=O)NC23CC4CC(C2)C(C(O)CC2c5ccccc5-c5cncn52)C(C4)C3)cc1` (stereo not drawn) [Compound 164A]: above 50%.
The same measure, in the same setting: the same measure for `O=C(Nc1ccc(F)cc1)NC1C2CC3CC1CC(C(O)CC1c4c(F)cccc4-c4cncn41)(C3)C2` (stereo not drawn) [Compound 93B]: above 50%.
On the same count and under the same terms, with `O=C(NCC1CCC1)NC1C2CC3CC1CC(C(O)CC1c4c(F)cccc4-c4cncn41)(C3)C2` (stereo not drawn) [Compound 111A] the figure was above 50%; with `Cc1ccc(NS(=O)(=O)NC2C3CC4CC2CC(C(O)CC2c5ccccc5-c5cncn52)(C4)C3)cc1` (stereo not drawn) [Compound 153], above 50%.
Consider `O=S(=O)(NC12CC3CC(C1)C(C(O)CC1c4ccccc4-c4cncn41)C(C3)C2)C1CC1` (stereo not drawn) [Compound 169A], for which the inhibition at 0.1 µM was above 50%.
For `OC(COC1C2CC3CC1CC(C(O)CC1c4c(F)cccc4-c4cncn41)(C3)C2)c1ccccc1` (stereo not drawn) [Compound 136], the “inhibition values of %” value is “greater than 50%”.
Turning to `Cc1ccc(CC(=O)NC23CC4CC(C2)C(C(O)CC2c5c(F)cccc5-c5cncn52)C(C4)C3)cc1` (stereo not drawn) [Compound 193A], the inhibition at 0.1 µM was above 50%.
Take `O=C1N(c2ccc(F)cc2)CCN1C1C2CC3CC1CC(C(O)CC1c4c(F)cccc4-c4cncn41)(C3)C2` (stereo not drawn) [Compound 122]: the “inhibition values of %” value is listed as “greater than 50%”.
In turn, `O=S(=O)(CC1CC1)NC1C2CC3CC1CC(C(O)CC1c4c(F)cccc4-c4cncn41)(C3)C2` (stereo not drawn) [Compound 68] registered an inhibition at 0.1 µM above 50%.
Same read-out and setting: with `O=C(Nc1ccc(Br)cc1)NC1C2CC3CC1CC(C(O)CC1c4c(F)cccc4-c4cncn41)(C3)C2` (stereo not drawn) [Compound 95A] the figure was above 50%; with `O=C(Cc1ccccc1)NC1C2CC3CC1CC(C(O)CC1c4ccccc4-c4cncn41)(C3)C2` (stereo not drawn) [Compound 53B], above 50%.

The test is the same for the next values; noted with them: HeLa cells, at 1000 nM, 100 ng/mL IFN-γ, 18 hours.
Consider `O=C(NC1CC1)NC1C2CC3CC1CC(C(O)CC1c4c(F)cccc4-c4cncn41)(C3)C2` (stereo not drawn) [Compound 106A], for which the inhibition at 1 µM is above 50%.
Same read-out and setting: the same measure for `O=S(=O)(Cc1ccccc1)N1C2CC3CC1CC(C(O)CC1c4c(F)cccc4-c4cncn41)(C3)C2` (stereo not drawn) [Compound 205]: above 50%; for `OC(CC1c2c(F)cccc2-c2cncn21)C12CC3CC(C1)N(c1ncc(-c4ccccc4)o1)C(C3)C2` (stereo not drawn) [Compound 210]: above 50%.
Consider `OCCC1(O)C2CC3CC1CC(C(O)CC1c4c(F)cccc4-c4cncn41)(C3)C2` (stereo not drawn) [Compound 142], for which the “inhibition values of %” value is “greater than 50%”.
Turning to `O=C(CO)NC1C2CC3CC1CC(C(O)CC1c4ccccc4-c4cncn41)(C3)C2` (stereo not drawn) [Compound 51A], the inhibition at 1 µM is above 50%.
Same read-out and setting: the same measure for `O=S(=O)(Cc1ccccc1)NC1C2CC3CC1CC(C(O)CC1c4ccccc4-c4cncn41)(C3)C2` (stereo not drawn) [Compound 75B]: above 50%.
Turning to `CC(=O)Nc1ccc(S(=O)(=O)NC23CC4CC(C2)C(C(O)CC2c5ccccc5-c5cncn52)C(C4)C3)cc1` (stereo not drawn) [Compound 201A], the inhibition at 1 µM was above 50%.
As to `O=C1C2CC3CC1CC(C(O)CC1c4c(F)cccc4-c4cncn41)(C3)C2` (stereo not drawn) [Compound 63], the “inhibition values of %” value was “greater than 50%”.
The molecule `N#Cc1ccc(C2(O)C3CC4CC2CC(C(O)CC2c5c(F)cccc5-c5cncn52)(C4)C3)cc1` (stereo not drawn) [Compound 145] gave an inhibition at 1 µM above 50%.
Still for that read-out and setting: the same measure for `O=C(Nc1ccc(F)cc1)NC12CC3CC(C1)C(C(O)CC1c4ccccc4-c4cncn41)C(C3)C2` (stereo not drawn) [Compound 163B]: above 50%; for `Cc1ccc(NC(=O)NC23CC4CC(C2)C(C(O)CC2c5ccccc5-c5cncn52)C(C4)C3)cc1` (stereo not drawn) [Compound 164B]: above 50%.
Molecule `Cn1cc(NC(=O)NC2C3CC4CC2CC(C(O)CC2c5c(F)cccc5-c5cncn52)(C4)C3)cn1` (stereo not drawn) [Compound 114A] showed an inhibition at 1 µM above 50%.
`CC(=O)c1ccc(NC(=O)NC2C3CC4CC2CC(C(O)CC2c5ccccc5-c5cncn52)(C4)C3)cc1` (stereo not drawn) [Compound 104] came in with an inhibition at 1 µM above 50%.
Still for that read-out and setting: with `O=C(Cc1ccncc1)NC1C2CC3CC1CC(C(O)CC1c4ccccc4-c4cncn41)(C3)C2` (stereo not drawn) [Compound 50A] the figure was above 50%; with `O=S(=O)(NC12CC3CC(C1)C(C(O)CC1c4ccccc4-c4cncn41)C(C3)C2)C1CC1` (stereo not drawn) [Compound 169B], above 50%.
With `CNC(=O)NC1C2CC3CC1CC(C(O)CC1c4c(F)cccc4-c4cncn41)(C3)C2` (stereo not drawn) [Compound 98A], the “inhibition values of %” value is recorded as “greater than 50%”.
On to `NS(=O)(=O)NC1C2CC3CC1CC(C(O)CC1c4c(F)cccc4-c4cncn41)(C3)C2` (stereo not drawn) [Compound 48A], for which the inhibition at 1 µM is above 50%.
The same measure, in the same setting: the same measure for `OC(COC1C2CC3CC1CC(C(O)CC1c4c(F)cccc4-c4cncn41)(C3)C2)C1CCCCC1` (stereo not drawn) [Compound 137]: above 50%; for `O=S(=O)(Nc1ccc(F)cc1)NC1C2CC3CC1CC(C(O)CC1c4ccccc4-c4cncn41)(C3)C2` (stereo not drawn) [Compound 152]: above 50%.
`O=S(=O)(CC1CCCCC1)NC12CC3CC(C1)C(C(O)CC1c4ccccc4-c4cncn41)C(C3)C2` (stereo not drawn) [Compound 170A-A] showed an inhibition at 1 µM above 50%.
Consider `OC(CC1c2c(F)cccc2-c2cncn21)C12CC3CC(C1)C(O)(c1cccnc1)C(C3)C2` (stereo not drawn) [Compound 146], for which the inhibition at 1 µM is above 50%.
On to `O=C(NC1CCOCC1)NC1C2CC3CC1CC(C(O)CC1c4c(F)cccc4-c4cncn41)(C3)C2` (stereo not drawn) [Compound 54], for which the “inhibition values of %” value is reported as “greater than 50%”.
In turn, `O=C(Nc1cccc2ccccc12)NC1C2CC3CC1CC(C(O)CC1c4c(F)cccc4-c4cncn41)(C3)C2` (stereo not drawn) [Compound 109A] displayed an inhibition at 1 µM above 50%.
The same measure, in the same setting: the same measure for `N#Cc1ccc(NC(=O)NC23CC4CC(C2)C(C(O)CC2c5c(F)cccc5-c5cncn52)C(C4)C3)cc1` (stereo not drawn) [Compound 191A]: above 50%.
In the case of `N#CC1C2CC3CC1CC(C(O)CC1c4c(F)cccc4-c4cncn41)(C3)C2` (stereo not drawn) [Compound 76], the “inhibition values of %” value is “greater than 50%”.

The record behind these values is US10202388B2, “Fused-ring compounds, pharmaceutical composition and uses thereof” (SHANGHAI DE NOVO PHARMATECH CO., LTD., priority 2015, dated 2019).
